From PMC8802628, “Selective activation of PFKL suppresses the phagocytic oxidative burst” (Cell, 2021)

Experiments:
PFKL [1] = molecular target: T1, PFKL (Homo sapiens, UniProt P17858); assay: Thermal inactivation assay of PFKL; type: biochemical; conditions: 35°C; 200 μM FBP, 200 nM NA-11
T1 construct: made in house; host or cells: Sf9 insect cells (baculovirus, Bac-to-Bac)
T1 sequence (P17858 1-780): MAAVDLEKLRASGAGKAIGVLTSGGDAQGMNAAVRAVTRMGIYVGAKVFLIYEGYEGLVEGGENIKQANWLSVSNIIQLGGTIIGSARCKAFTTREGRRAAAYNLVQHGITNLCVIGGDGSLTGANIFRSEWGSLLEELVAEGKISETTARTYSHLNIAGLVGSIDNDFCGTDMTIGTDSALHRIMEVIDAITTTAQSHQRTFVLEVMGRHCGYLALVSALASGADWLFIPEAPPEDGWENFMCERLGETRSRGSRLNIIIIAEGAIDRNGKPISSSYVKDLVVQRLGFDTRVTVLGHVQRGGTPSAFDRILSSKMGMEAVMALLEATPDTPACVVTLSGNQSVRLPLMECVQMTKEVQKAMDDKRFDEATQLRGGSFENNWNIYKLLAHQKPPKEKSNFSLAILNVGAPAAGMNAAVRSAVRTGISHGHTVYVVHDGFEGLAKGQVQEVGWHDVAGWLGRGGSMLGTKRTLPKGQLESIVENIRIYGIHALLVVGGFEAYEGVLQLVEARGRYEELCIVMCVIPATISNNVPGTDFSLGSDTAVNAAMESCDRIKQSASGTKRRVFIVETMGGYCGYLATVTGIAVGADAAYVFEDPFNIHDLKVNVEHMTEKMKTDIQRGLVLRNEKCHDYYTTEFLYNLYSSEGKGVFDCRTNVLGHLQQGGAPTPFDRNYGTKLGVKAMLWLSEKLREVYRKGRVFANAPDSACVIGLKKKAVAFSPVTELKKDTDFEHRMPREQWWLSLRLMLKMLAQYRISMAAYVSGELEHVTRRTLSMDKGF
Protocol: Thermal inactivation assays were performed as previously described for PFKP, with modifications to account for the decreased stability of PFKL ([Sánchez-Martínez et al., 2000]). PFKL was diluted to 10 ng/mL, with a final buffer composition of 53.3 mM HEPES, 100 mM KCl, 0.167 mM DTT, 83.3 μM ammonium sulfate, 0.83% glycerol, 0.170 mM ATP, and 16.7 mM EDTA. Samples were incubated at 35°C. At the times indicated, samples were removed and residual PFK1 activity measured using the PK/LDH auxiliary enzyme assay described above with 125 μM ATP and 5 mM F6P. To determine if small molecule ligands altered PFKL stability, 200 μM FBP and 200 nM NA-11 were added.

GSDMD = molecular target: T2, GSDMD (Homo sapiens, UniProt P57764); assay: TR-FRET liposome cargo release (GSDMD pore formation); type: biochemical; conditions: 10 μM
T2 sequence (P57764 1-484): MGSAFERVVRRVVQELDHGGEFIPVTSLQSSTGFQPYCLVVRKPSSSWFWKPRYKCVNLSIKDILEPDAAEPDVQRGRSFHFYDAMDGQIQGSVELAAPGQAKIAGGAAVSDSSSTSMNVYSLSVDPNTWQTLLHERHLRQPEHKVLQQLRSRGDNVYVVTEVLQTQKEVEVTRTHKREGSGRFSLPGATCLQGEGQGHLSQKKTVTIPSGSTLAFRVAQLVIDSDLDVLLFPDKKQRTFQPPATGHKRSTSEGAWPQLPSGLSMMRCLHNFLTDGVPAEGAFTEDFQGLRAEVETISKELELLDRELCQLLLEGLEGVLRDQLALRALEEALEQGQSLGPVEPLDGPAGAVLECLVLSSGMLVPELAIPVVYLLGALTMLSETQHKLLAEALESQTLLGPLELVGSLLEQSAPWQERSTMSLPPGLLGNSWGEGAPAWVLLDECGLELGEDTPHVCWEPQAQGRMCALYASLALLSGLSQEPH
Protocol: GSDMD-dependent liposome cargo release was conducted by Confluence Discovery Technologies with modifications to the procedure described previously ([Aglietti et al., 2016]). Briefly, liposomes with an encapsulated cargo of europium-chelate conjugated biotin were formed from a lipid mixture of DOPC:DOPE (1:1). 0.15 mg/mL of cargo-loaded liposomes were mixed with 0.3 μM of recombinant GSDMD and incubated with 10 μM LDC7559, 10 μM disulfiram or DMSO vehicle. 0.15 μM caspase-4 and 50 nM streptavidin-Alexa Fluor 647 were added and TR-FRET was read over 1 h using a PHERAstar FSX Microplate Reader (BMG Labtech) equipped with a TR-FRET module.

[2] = tested on: human peripheral blood neutrophils; assay: NETosis assay in human neutrophils (SYTOX Green, DNA area); type: cell-based; conditions: PMA; SAR analogs compared to LDC7559
Protocol: Freshly purified neutrophils were plated at 6 × 10^3 cells/well in glass bottom 96-well plates (SensoPlate, Greiner Bio-One 82050-792) in the RPMI medium described above. Cells were pretreated with DMSO vehicle, 0.5 μM NA-11, 100 μM apocynin, 0.5 μM and 5 μM PALP, or 0.5 μM and 5 μM LDC7559 for 30 min, and then stimulated with 50 nM PMA, 1 μM f-MLP, 5 μg/mL cholesterol crystals, 10 μg/mL LPS, 25 μM nigericin, or 25 μM calcymicin (A23187) for 3 h (except in Figures S1A, 6A and S7C, where cells were stimulated for 4 h). Cells were fixed and permeabilized in 2.5% paraformaldehyde (PFA) and 0.02% Triton X-100 in PBS for 30 min. For quantification of NETosis, cells were stained with 150 nM SYTOX Green and imaged in a KEYENCE Fluorescence Microscope (KEYENCE, ZB-X800E) at 10 x magnification. For immunolabeling, fixed cells were blocked with 2% BSA for 1 h, and then stained with anti-CitH3 and anti-MPO antibodies at a dilution of 1/200 in 1% BSA in PBS. Images were taken at 60 x magnification using an ImageXpress Micro Confocal high-content imaging system (Molecular Devices).
Semi-automated analysis of both phase and fluorescence images of SYTOX Green-stained neutrophils used a specialized MATLAB algorithm. Total cells were counted by scoring phase standard deviation and radial symmetry. NETosis was classified in cells by measuring the DNA area in the fluorescence image and comparing with a select internal training set for each experiment. Unstimulated cells and PMA-stimulated, […] cells served as negative controls. PMA-stimulated cells served as a positive control. NET-forming cells are presented as a percentage of total cells.

PFKL [3] = molecular target: T1, PFKL; assay: Recombinant PFKL activity assay (relief of ATP inhibition); type: biochemical; conditions: 3.1 mM ATP
Text: Recombinant N-terminal His-tagged human PFKL (NP_002617), PFKM (NP_000280), and PFKP (NM_002627.4) were generated as described ([Webb et al., 2015], [2017]). Point mutants of PFK1 were generated using the QuikChange Lightning kit (Aligent).
His-tagged PFK1 was expressed and purified as described with slight modifications ([Webb et al., 2015], [2017]). Briefly, baculovirus was generated using the Bac-to-Bac Expression system (Invitrogen). PFK1 was expressed in 2-5 × 10^6 sf9 cells at a multiplicity of infection of two for 48 h. Cells were lysed in 20 mM HEPES, pH 7.5, 80 mM potassium phosphate, 1 mM 2-mercapentoethanol, 10% glycerol, 10 mM imidazole, and EDTA-free Protease Inhibitor Cocktail (Abcam) with a Dounce homogenizer. The soluble lysate was incubated with HisPur cobalt resin (ThermoFisher Scientific). The resin was washed with 5 bead volumes lysis buffer, 10 bead volumes lysis buffer containing 2 M NaCl, and 5 further bead volumes lysis buffer. PFK1 was eluted in lysis buffer containing 100 mM imidazole. Fractions containing protein were pooled, passed over a desalting column equilibrated in freezing buffer [20 mM HEPES pH 7.5, 1 mM DTT, 500 μM ammonium sulfate, 5% glycerol, 1 mM ATP, and 100 μM EDTA] and concentrated using an Amicon Ultracel-30K Centrifugal Filter Unit (MilliporeSigma). Protein was quantified using a Bradford Protein Assay kit (ThermoFisher Scientific), and aliquotes frozen in liquid nitrogen for storage at −80°C.
PFK1 activity was determined using the rate of FBP production via an auxiliary enzyme assay adapted to a 96-well format ([Brüser et al., 2012]; [Webb et al., 2015]). The auxiliary enzymes aldolase, triosephosphate isomerase, and glycerol phosphate dehydrogenase were purchased from MilliporeSigma as ammonium sulfate slurries and desalted using an Amicon Ultracel-10K Centrifugal Filter Unit. For assays containing FBP, the rate of ADP production was determined using the auxiliary enzymes pyruvate kinase (PK) and lactate dehydrogenase (LDH) (MilliporeSigma) in a buffer containing 250 μM phosphoenolpyruvic acid, […] NADH, 50 mM HEPES pH 7.5, 100 mM KCl, 1 mM DTT, and effector concentrations as described in the text. The temperature was equilibrated to 25°C for 5 min before initiating the reaction 10 mM MgCl2. Absorbance at 340 nm was measured using a Varioskan LUX Multimode microplate reader (ThermoFisher). Kinetic parameters were generated by nonlinear regression analysis using Prism (GraphPad Software) and are the mean of a minimum of three measurements from two independent preparations of protein. One unit of activity was defined as the amount of enzyme that catalyzed the formation of 1 μmol of fructose 1,6-bisphosphate per min at 25°C. Assays for PFKM were performed at pH 7.0 due to the pH-dependence of ATP inhibition ([Trivedi and Danforth, 1966]).

PMNs [4] = assay: ROS detection assay (ROS-Glo) in neutrophils; type: cell-based, human
Protocol: ROS were measured using the ROS-Glo bioluminescent assay (Promega) for the direct detection of H2O2. Briefly, neutrophils (2 × 10^4) were plated in white 96-well plates (Greiner) in high glucose DMEM medium. Cells were cultured with DMSO vehicle, 0.5 μM NA-11, 5 μM LDC7559, 100 μM apocynin, or 200 μM thionicotinamide for 30 min, and then stimulated with 50 nM PMA or treated with 10 μg/mL zymosan beads, pre-opsonized in 20% serum for 30 min. Luminescence, after the addition of H2O2 substrate solution of 20 min, and then ROS-Glo detection solution for 20 min, was recorded on a plate reader (Envision).

[5] = tested on: human bronchial epithelial cells (HBECs); assay: Epithelial barrier tissue damage assay (FITC-dextran); type: cell-based; conditions: PMA-activated neutrophils on HBECs
Protocol: Human bronchial epithelial cells (HBECs) (4 × 10^4 in […] complete PneumaCult-Ex plus medium) were added to a HTS Transwell-96 permeable support plate (polyester membrane with a 0.4 μm pores) and immersed in receiver plates containing 150 μL of complete PneumaCult-Ex plus medium for 3 days. The medium on confluent monolayers was then replaced with RPMI medium containing neutrophils (4 × 10^4) in RPMI buffer that were previously treated with 5 μM NA-11, 100 μM apocynin, 5 μM NA-4, or DMSO vehicle and then activated with 100 nM PMA. The transwell plate was cultured in a new receiver plate containing 150 μL Hank’s balanced salt solution (HBSS) for 2 h. 10 μL of DMEM supplemented with 5% FBS and 2 mM L-glutamine were added to each well and the plate was incubated for additional 18 h. To measure the permeability of the epithelial barrier, FITC-dextran (200 μg/mL) and DNase-1 (22 Units/mL) were added to the apical side for 1 h. FITC-dextran in the receiver plate was measured (ex: 494 em: 521).

PMNs [6] = assay: NADPH/NADP+ detection assay in neutrophils; type: cell-based, human; conditions: pretreatment, PMA-activated neutrophils
Protocol: The ratio of NADPH/NADP^+ (or NADH/NAD^+) was calculated after measuring the individual concentrations of NADPH and NADP^+ (or NADH and NAD^+) with NADP/NADPH-Glo (or NAD/NADH-Glo) assays (Promega). […] Cells were lysed in plates by addition of 1% dodecyltrimethylammonium bromide (DTAB). To measure NADPH, half of the samples was heated at 60 °C for 30 min. The other half was treated with HCl before heating to 60°C, to measure NADP^+. All samples were neutralized before adding luciferase detection reagent, then incubated for 1 h with gentle shaking. Luminescence was recorded on a plate reader (Envision).

E. coli = assay: Phagocytosis assay: E. coli C.F.U. recovered from PMNs; type: cell-based, human; conditions: neutrophils pretreated 30 min
Protocol: Neutrophils (1 × 10^6) were cultured in 6-well tissue in RPMI medium containing DMSO vehicle, 0.5 μM NA-11, 0.5 μM NA-4, 100 μM Apocynin or 100 μM thionicotinamide (TN) for 30 min. E. coli grown in LB broth overnight (2 mL) were opsonized with human serum (1 mL pooled from three donors) for 1 h at room temperature. Opsonized bacteria were washed with PBS, resuspended in LB broth to an OD600of 0.1 and then added to cultured neutrophils at an MOI of 1 for 30 min. Cells were washed with medium three times and then cultured with 300 μg/mL gentamicin for 2 h to kill any extracellular bacteria. Cells were then washed again, twice with medium and once with PBS. To release phagocytosed bacteria, neutrophils were lysed in 0.05% saponin in PBS. Lysates were passed through a 25’ gauge needed several times and the number of viable phagocytosed bacteria was determined by colony counting.

O=C(COP(=O)(O)O)[C@@H](O)[C@H](O)[C@H](O)COP(=O)(O)O [FBP, fructose 1,6-bisphosphate]
protection of PFKL from thermal inactivation (PFKL [1]): protected PFKL from thermal inactivation

CCN(CC)C(=S)SSC(=S)N(CC)CC [disulfiram]
liposome permeabilization by GSDMD pore-forming fragment (GSDMD): prevented liposome permeabilization

COc1ccccc1-c1cc2n(n1)Cc1ccc(N)cc1OC2 [NA-4]
inhibition of PMA-induced NETosis [2]: no inhibitor activity | activation of PFKL (PFKL [3]): did not activate PFKL | ROS production during phagocytosis of opsonized zymosan (PMNs [4]; over 2 h): did not suppress ROS production | protection of epithelial layer from neutrophil-induced oxidative damage [5]: did not

COc1cc(C(C)=O)ccc1O [apocynin, reference compound]
PMA-induced ROS production (PMNs [4]; 50 nM PMA): prevented | ratio of NADPH/NADP+ (PMNs [6]): roughly twice that of untreated cells | killing of phagocytosed bacteria (bacterial colonies recovered) (E. coli): less efficient killers of phagocytosed bacteria | protection of epithelial layer from neutrophil-induced oxidative damage [5]: protected the epithelial layer
